From patent publication US20180110824A1, “Macrocyclic Modulators of the Ghrelin Receptor” (Ocera Therapeutics, Inc., priority 2016, published 2018)

Biological target: motilin receptor (Homo sapiens, UniProt O43193)
Assay: Selectivity for the ghrelin receptor versus the motilin receptor
Type: binding
Conditions: not given
Source text: The level of agonist activity and selectivity for representative compounds of the invention are shown below in Table 4.

Sequence of motilin receptor (O43193 whole entry, species assumed): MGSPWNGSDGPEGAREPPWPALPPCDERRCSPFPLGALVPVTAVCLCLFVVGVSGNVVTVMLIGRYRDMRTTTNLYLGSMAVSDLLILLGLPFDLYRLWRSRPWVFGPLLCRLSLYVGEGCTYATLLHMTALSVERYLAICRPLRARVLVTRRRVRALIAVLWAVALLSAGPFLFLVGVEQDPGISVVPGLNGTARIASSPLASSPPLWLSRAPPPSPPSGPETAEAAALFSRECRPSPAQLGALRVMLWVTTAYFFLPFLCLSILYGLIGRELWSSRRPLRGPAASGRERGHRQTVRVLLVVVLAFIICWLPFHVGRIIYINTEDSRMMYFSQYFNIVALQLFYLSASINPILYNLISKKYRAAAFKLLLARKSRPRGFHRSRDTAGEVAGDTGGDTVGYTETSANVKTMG

Question: CC(C)[C@@H]1NCCOc2ccccc2CCCNC(=O)[C@H](Cc2ccccc2)NC(=O)C2(CCCC2)NC1=O [Compound 9] was tested. Which Selectivity did it give?
Answer: Its Selectivity is 117/1.

Question: CCC[C@@H]1NCCOc2ccccc2CCCNC(=O)[C@@H](Cc2ccccc2)NC(=O)CN(C)C1=O [Compound 10] was tested. Which Selectivity did it give?
Answer: Its Selectivity is 304/1.

Question: With CCC[C@@H]1NCCOc2ccccc2CCCNC(=O)[C@@H](Cc2ccc(O)cc2)NC(=O)CN(C)C1=O [compound 7] as the molecule, how does the Selectivity read?
Answer: The Selectivity was >100/1.

Question: For C[C@@H]1C(=O)N[C@H](Cc2ccccc2)C(=O)NCCCc2ccccc2OCCN[C@@H](C2CC2)C(=O)N1C [compound 17], which Selectivity is on record?
Answer: The Selectivity was 2500/1.

Question: With O=C1NC/C=C/c2ccccc2OCCNC2(CCCC2)C(=O)NC2(CCCC2)C(=O)N[C@H]1Cc1ccccc1 [compound 18] as the molecule, how does the Selectivity read?
Answer: Its Selectivity is 222/1.

Question: How did the Selectivity turn out when CC(C)C[C@@H]1NCCOc2ccccc2/C=C/CNC(=O)[C@H](Cc2cccc(Cl)c2)NC(=O)C2(CCCC2)NC1=O [compound 21] was run?
Answer: The Selectivity was 1078/1.

Question: How did the Selectivity turn out when CCC(C)C1NCCOc2ccccc2CCCNC(=O)C(Cc2ccc(F)cc2)NC(=O)C(C)N(C)C1=O (stereo not drawn) [compound 26] was run?
Answer: Its Selectivity is >7700/1.

Question: CCC(C)[C@@H]1NCCOc2ccccc2CCCNC(=O)[C@@H](Cc2ccc(OC)cc2)NC(=O)[C@@H](C)N(C)C1=O (stereo partly drawn) [compound 27] was tested. Which Selectivity did it give?
Answer: Its Selectivity is >7100/1.

Biological target: T1, human growth hormone secretagogue receptor (hGHS-R1a) (Homo sapiens, UniProt Q92847)
T1 construct: purchased PerkinElmer BioSignal #RBHGHSM; host or cells: HEK-293, stably transfected
T1 sequence (Q92847 whole entry): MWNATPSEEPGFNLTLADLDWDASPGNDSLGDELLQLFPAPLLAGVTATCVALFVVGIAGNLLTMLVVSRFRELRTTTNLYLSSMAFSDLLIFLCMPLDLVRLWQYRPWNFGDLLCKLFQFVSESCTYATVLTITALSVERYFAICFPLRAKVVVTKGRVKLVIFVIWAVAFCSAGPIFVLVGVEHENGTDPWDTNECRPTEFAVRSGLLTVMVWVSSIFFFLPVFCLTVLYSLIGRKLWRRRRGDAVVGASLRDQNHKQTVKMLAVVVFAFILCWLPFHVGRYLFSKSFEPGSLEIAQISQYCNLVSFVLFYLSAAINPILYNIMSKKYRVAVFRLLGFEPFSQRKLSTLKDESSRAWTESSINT
Assay: Competitive radioligand binding assay (ghrelin receptor), [125I]-ghrelin displacement on GHS-R/HEK 293 membranes
Conditions: Binding activity at the human ghrelin receptor, [125I]-ghrelin displacement; read-out: Ki

Question: CC(C)[C@@H]1NCCOc2ccccc2CCCNC(=O)[C@H](Cc2ccccc2)NC(=O)C2(CCCC2)NC1=O [Compound 9] was tested. Which Ki did it give?
Answer: The Ki was 100 to 1000 nM.

Question: How did the Ki turn out when CCC[C@@H]1NCCOc2ccccc2CCCNC(=O)[C@@H](Cc2ccccc2)NC(=O)CN(C)C1=O [Compound 10] was run?
Answer: The Ki was 10 to 100 nM.

Question: CCC[C@@H]1NCCOc2ccccc2CCCNC(=O)[C@@H](Cc2ccc(O)cc2)NC(=O)CN(C)C1=O [compound 7] was tested. Which Ki did it give?
Answer: The Ki was 100 to 1000 nM.

Question: Which Ki does the source give for C[C@@H]1C(=O)N[C@H](Cc2ccccc2)C(=O)NCCCc2ccccc2OCCN[C@@H](C2CC2)C(=O)N1C [compound 17] here?
Answer: The Ki was 0.1 to 10 nM.

Question: With O=C1NC/C=C/c2ccccc2OCCNC2(CCCC2)C(=O)NC2(CCCC2)C(=O)N[C@H]1Cc1ccccc1 [compound 18] as the molecule, how does the Ki read?
Answer: The Ki was 10 to 100 nM.

Question: CC(C)C[C@@H]1NCCOc2ccccc2/C=C/CNC(=O)[C@H](Cc2cccc(Cl)c2)NC(=O)C2(CCCC2)NC1=O [compound 21] was tested. Which Ki did it give?
Answer: Its Ki is 0.1 to 10 nM.

Question: How did the Ki turn out when CCC(C)C1NCCOc2ccccc2CCCNC(=O)C(Cc2ccc(F)cc2)NC(=O)C(C)N(C)C1=O (stereo not drawn) [compound 26] was run?
Answer: The Ki was 0.1 to 10 nM.

Question: Which Ki does the source give for CCC(C)[C@@H]1NCCOc2ccccc2CCCNC(=O)[C@@H](Cc2ccc(OC)cc2)NC(=O)[C@@H](C)N(C)C1=O (stereo partly drawn) [compound 27] here?
Answer: The Ki was 0.1 to 10 nM.

Same assay, conditions: Table 3C; read-out: Ki

Question: O=C1NC/C=C/c2ccccc2OCCNC2(CCCC2)C(=O)NC2(CCCC2)C(=O)N[C@H]1Cc1ccccc1 [compound 18] was tested. Which Ki did it give?
Answer: The Ki was 10 to 100 nM.

Same assay, conditions: Table 4; TFA salts unless otherwise noted; read-out: Ki

Question: For CC(C)[C@@H]1NCCOc2ccccc2CCCNC(=O)[C@H](Cc2ccccc2)NC(=O)C2(CCCC2)NC1=O [Compound 9], which Ki is on record?
Answer: Its Ki is 100 to 1000 nM.

Question: Which Ki does the source give for CCC[C@@H]1NCCOc2ccccc2CCCNC(=O)[C@@H](Cc2ccccc2)NC(=O)CN(C)C1=O [Compound 10] here?
Answer: Its Ki is 10 to 100 nM.

Question: How did the Ki turn out when CCC[C@@H]1NCCOc2ccccc2CCCNC(=O)[C@@H](Cc2ccc(O)cc2)NC(=O)CN(C)C1=O [compound 7] was run?
Answer: Its Ki is 100 to 1000 nM.

Question: C[C@@H]1C(=O)N[C@H](Cc2ccccc2)C(=O)NCCCc2ccccc2OCCN[C@@H](C2CC2)C(=O)N1C [compound 17] was tested. Which Ki did it give?
Answer: Its Ki is 0.1 to 10 nM.

Question: O=C1NC/C=C/c2ccccc2OCCNC2(CCCC2)C(=O)NC2(CCCC2)C(=O)N[C@H]1Cc1ccccc1 [compound 18] was tested. Which Ki did it give?
Answer: The Ki was 10 to 100 nM.

Question: How did the Ki turn out when CC(C)C[C@@H]1NCCOc2ccccc2/C=C/CNC(=O)[C@H](Cc2cccc(Cl)c2)NC(=O)C2(CCCC2)NC1=O [compound 21] was run?
Answer: Its Ki is 0.1 to 10 nM.

Question: How did the Ki turn out when CCC(C)C1NCCOc2ccccc2CCCNC(=O)C(Cc2ccc(F)cc2)NC(=O)C(C)N(C)C1=O (stereo not drawn) [compound 26] was run?
Answer: The Ki was 0.1 to 10 nM.

Question: For CCC(C)[C@@H]1NCCOc2ccccc2CCCNC(=O)[C@@H](Cc2ccc(OC)cc2)NC(=O)[C@@H](C)N(C)C1=O (stereo partly drawn) [compound 27], which Ki is on record?
Answer: Its Ki is 0.1 to 10 nM.

Biological target: T2, human ghrelin receptor (hGHS-R1a) (Homo sapiens, UniProt Q92847)
T2 construct: host or cells: CHO-K1 co-expressing Gα16 and mitochondrially targeted aequorin
T2 sequence (Q92847 whole entry): as above
Assay: Aequorin functional assay (ghrelin receptor), CHO-K1 cells co-expressing Gα16 and aequorin
Type: cell-based
Conditions: Table 4; functional (agonist) activity; TFA salts unless otherwise noted; read-out: EC50
Protocol: This cell line is typically constructed by transfection of the human ghrelin receptor into CHO-K1 cells co-expressing Gα16 and the mitochondrially targeted Aequorin (Ref #ES-WT-A5). • 1. […] Assay buffer: DMEM (Dulbecco's Modified Eagles Medium) containing 0.1% BSA (bovine serum albumin; pH 7.0). • 3. Coelenterazine (Molecular Probes, Leiden, The Netherlands). • Final test concentrations (N=8) for compounds of the invention: 10, 1, 0.3, 0.1, 0.03, 0.01, 0.003, 0.001 μM.
Stock solutions of compounds (10 mM in 100% DMSO) were provided frozen on dry ice and stored at −20° C. prior to use. […] Assay plates were then prepared by appropriate dilution in DMEM medium containing 0.1% BSA. Under these conditions, the maximal final DMSO concentration in the assay was <0.6%.
AequoScreen™ cells were collected from culture plates with Ca^2+ and Mg^2+-free phosphate buffered saline (PBS) supplemented with 5 mM EDTA, pelleted for 2 min at 1000×g re-suspended in DMEM—Ham's F12 containing 0.1% BSA at a density of 5×10^6 cells/mL, and incubated O/N at rt in the presence of 5 μM coelenterazine. After loading, cells were diluted with assay buffer to a concentration of 5×10^5 cells/mL.
For agonist testing, 50 μL of the cell suspension was mixed with 50 μL of the appropriate concentration of test compound or ghrelin (reference agonist) in 96-well plates (duplicate samples). Ghrelin (reference agonist) was tested at several concentrations concurrently with the test compounds in order to validate the experiment. The emission of light resulting from receptor activation in response to ghrelin or test compounds was recorded using the Hamamatsu FDSS 6000 reader (Hamamatsu Photonics K.K., Japan).
Results were expressed as Relative Light Units (RLU). […] EC50, Hill slope and % Emax values are reported.
• 1. Assay performed on CHO-K1 cells expressing the transfected, cloned human ghrelin receptor (hGHS-R1a) and Gα16. • 2. Suspended cells incubated O/N with coelenterazine. • 3. Stimulation of hGHS-R1a activates Gα16, causing […] Ca2+ release which ultimately leads to the oxidation of coelenterazine and the emission of a quantitative luminescent signal. • 4. Ghrelin was used as the positive control. • 5.

Question: With CC(C)[C@@H]1NCCOc2ccccc2CCCNC(=O)[C@H](Cc2ccccc2)NC(=O)C2(CCCC2)NC1=O [Compound 9] as the molecule, how does the EC50 read?
Answer: The EC50 was 100 to 1000 nM.

Question: With CCC[C@@H]1NCCOc2ccccc2CCCNC(=O)[C@@H](Cc2ccccc2)NC(=O)CN(C)C1=O [Compound 10] as the molecule, how does the EC50 read?
Answer: Its EC50 is 1 to 100 nM.

Question: CCC[C@@H]1NCCOc2ccccc2CCCNC(=O)[C@@H](Cc2ccc(O)cc2)NC(=O)CN(C)C1=O [compound 7] was tested. Which EC50 did it give?
Answer: The EC50 was 1 to 100 nM.

Question: With C[C@@H]1C(=O)N[C@H](Cc2ccccc2)C(=O)NCCCc2ccccc2OCCN[C@@H](C2CC2)C(=O)N1C [compound 17] as the molecule, how does the EC50 read?
Answer: The EC50 was 1 to 100 nM.

Question: Which EC50 does the source give for O=C1NC/C=C/c2ccccc2OCCNC2(CCCC2)C(=O)NC2(CCCC2)C(=O)N[C@H]1Cc1ccccc1 [compound 18] here?
Answer: The EC50 was 1 to 100 nM.

Question: For CC(C)C[C@@H]1NCCOc2ccccc2/C=C/CNC(=O)[C@H](Cc2cccc(Cl)c2)NC(=O)C2(CCCC2)NC1=O [compound 21], which EC50 is on record?
Answer: Its EC50 is 1 to 100 nM.

Question: How did the EC50 turn out when CCC(C)C1NCCOc2ccccc2CCCNC(=O)C(Cc2ccc(F)cc2)NC(=O)C(C)N(C)C1=O (stereo not drawn) [compound 26] was run?
Answer: The EC50 was 1 to 100 nM.

Question: How did the EC50 turn out when CCC(C)[C@@H]1NCCOc2ccccc2CCCNC(=O)[C@@H](Cc2ccc(OC)cc2)NC(=O)[C@@H](C)N(C)C1=O (stereo partly drawn) [compound 27] was run?
Answer: Its EC50 is 1 to 100 nM.
